System: differentiated human podocytes
Assay: RNA sequencing and enrichment analysis of BT503-treated podocytes
Format: cell-based
Conditions: vs DMSO in the setting of LPS treatment
Text: RNA sequencing data was processed as previously described (Z. Wang, A. Ma'ayan, (2016) F1000Res 5, 1574). Briefly, sequencing reads were first aligned to the human genome (version hg38) using Spliced Transcripts Alignment to a Reference (STAR 2.4.1c) (A. Dobin et al., (2013) Bioinformatics 29, 15-21). Aligned reads were then quantified to the transcriptome (UCSC hg38 annotation) at the gene level using featureCounts (v1.4.6) (Y. Liao, G. K. Smyth, W. Shi, (2014) Bioinformatics 30, 923-930). Read counts were normalized to count per million (CPM), and differentially expressed genes were identified using BioJupies (A. Lachmann et al., (2018) Nat Commun 9, 1366). Enrichment analyses of the differentially expressed genes were performed with Enrichr (33, 66) with WikiPathways (D. N. Slenter et al., (2018) Nucleic Acids Res 46, D661-d667) and KEGG (M. Kanehisa, S. Goto, (2000) Nucleic Acids Res 28, 27-30) databases. Normalized read counts were used to create matrix visualized heat maps on Morpheus by Broad Institute (https://software.broadinstitute.org/morpheus) with hierarchical clustering, sorted by one minus Pearson's correlation and clustered by rows. […]

For `CSc1ccc(NC(=O)Nc2ccc(C)nc2)cc1` [BT503], the “DEGs involved in NF-κB signaling (GSEA, heatmap)” value was “downregulation”.

— US20250186411A1, “Methods of Treating Disorders Associated with Overactivation of IKKB” (The United States Government as represented by the …, priority 2023, published 2025)
